The target in one assay is mHCN1 (Mouse HCN1) (Mus musculus, UniProt O88704). The assay is described as follows: whole-cell patch clamp of Ih in transfected HEK […] cells. The class given is cell-based. Background: In patch-clamp work, channel activity is measured electrically.
A further assay has as its target T1, mHCN2 (Mouse HCN2) (Mus musculus, UniProt O88703).
T1 sequence (O88703 1-863): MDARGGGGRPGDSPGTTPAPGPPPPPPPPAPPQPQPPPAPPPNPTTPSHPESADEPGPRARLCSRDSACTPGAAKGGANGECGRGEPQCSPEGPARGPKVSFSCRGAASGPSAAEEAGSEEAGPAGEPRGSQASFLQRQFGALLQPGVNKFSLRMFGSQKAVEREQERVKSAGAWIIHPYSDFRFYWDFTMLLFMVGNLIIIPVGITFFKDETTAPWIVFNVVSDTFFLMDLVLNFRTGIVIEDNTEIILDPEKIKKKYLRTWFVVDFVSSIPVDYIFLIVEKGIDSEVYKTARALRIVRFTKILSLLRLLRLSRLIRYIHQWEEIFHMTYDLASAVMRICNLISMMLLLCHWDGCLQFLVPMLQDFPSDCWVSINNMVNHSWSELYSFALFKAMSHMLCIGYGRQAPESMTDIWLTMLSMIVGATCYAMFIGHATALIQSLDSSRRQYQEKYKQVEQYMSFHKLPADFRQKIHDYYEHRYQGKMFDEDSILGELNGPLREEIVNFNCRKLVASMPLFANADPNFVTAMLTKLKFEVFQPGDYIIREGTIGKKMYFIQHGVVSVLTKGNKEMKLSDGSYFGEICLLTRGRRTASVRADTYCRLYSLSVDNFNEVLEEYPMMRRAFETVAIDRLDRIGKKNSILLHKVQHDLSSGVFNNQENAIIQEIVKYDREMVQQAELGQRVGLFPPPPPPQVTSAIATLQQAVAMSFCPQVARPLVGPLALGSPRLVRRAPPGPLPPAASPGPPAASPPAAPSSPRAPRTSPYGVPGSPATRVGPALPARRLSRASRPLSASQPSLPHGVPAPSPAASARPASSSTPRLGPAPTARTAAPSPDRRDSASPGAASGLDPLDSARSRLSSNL
Described as above. In kind it is cell-based.

Consider one compound from publication PMC6571133, “Capsazepine prolongation of the duration of lidocaine block of sensory transmission in mice may be mediated by modulation of HCN channel currents” (PeerJ, 2019).

Sequence of mHCN1 (Mouse HCN1) (O88704 whole entry): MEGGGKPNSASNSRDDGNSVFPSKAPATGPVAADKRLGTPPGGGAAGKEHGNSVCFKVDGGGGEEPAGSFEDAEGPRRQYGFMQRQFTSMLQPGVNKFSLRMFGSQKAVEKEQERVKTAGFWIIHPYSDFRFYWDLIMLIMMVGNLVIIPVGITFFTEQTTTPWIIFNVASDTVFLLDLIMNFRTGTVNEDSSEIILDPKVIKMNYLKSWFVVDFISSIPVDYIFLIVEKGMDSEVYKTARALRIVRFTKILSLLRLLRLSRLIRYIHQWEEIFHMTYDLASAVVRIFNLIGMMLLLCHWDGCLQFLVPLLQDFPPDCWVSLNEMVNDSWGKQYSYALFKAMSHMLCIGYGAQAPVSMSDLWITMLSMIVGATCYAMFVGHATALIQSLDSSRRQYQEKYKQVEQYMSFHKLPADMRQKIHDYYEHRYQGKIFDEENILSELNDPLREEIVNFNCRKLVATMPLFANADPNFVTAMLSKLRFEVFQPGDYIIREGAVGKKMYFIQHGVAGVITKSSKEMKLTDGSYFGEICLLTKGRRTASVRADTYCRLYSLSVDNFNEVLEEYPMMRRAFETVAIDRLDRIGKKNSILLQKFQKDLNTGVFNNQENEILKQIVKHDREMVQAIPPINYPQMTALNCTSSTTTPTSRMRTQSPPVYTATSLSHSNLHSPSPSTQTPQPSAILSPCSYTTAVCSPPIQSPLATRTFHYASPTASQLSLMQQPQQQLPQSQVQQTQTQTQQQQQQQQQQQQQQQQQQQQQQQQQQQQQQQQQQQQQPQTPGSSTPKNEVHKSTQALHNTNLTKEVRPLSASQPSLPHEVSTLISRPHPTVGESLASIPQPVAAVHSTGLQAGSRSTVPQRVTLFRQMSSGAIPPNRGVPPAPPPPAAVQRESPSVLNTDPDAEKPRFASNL

On to `Oc1cc2c(cc1O)CN(C(=S)NCCc1ccc(Cl)cc1)CCC2` [CPZ, Capsazepine], for which the results for the IC50 at mHCN1 (Mouse HCN1) and against mHCN2 (Mouse HCN2) were 8.2 ± 0.3 µM and 9.6 ± 0.4 µM, respectively.
